Test results reported in patent US4695622A, “Hexapeptide” (Vsesojuzny Kardiologichesky Nauchny Tsentr Akademii …, priority 1984, dated 1987).
Residues, ends and D or L forms follow the SMILES beside them.

Tests used:
[1] = system: experimental hemorrhagic pancreonecrosis; experiment: Enzymatic activity in blood serum in experimental hemorrhagic pancreonecrosis (acute pancreatitis model); assay type: in vivo, dogs
Protocol: (§1) The biological activity of the hexapeptide according to the present invention has been studied in experiments on dogs using an experimental acute pancreatitis model.
(§2) To this end, a similar operation was performed on 10 dogs. Under hexenal narcosis upper-median laparotomy was made. Into the wound a loop of duodenum was introduced with pancreas, cannulated and Wirsung's duct was dressed on a drain Snatorini's duct was additionally dressed too. Then the gall-bladder was punctured, bile was extracted therefrom and injected under pressure into Wirsung's duct at the rate of 0.5 ml per kg of the animal's bodyweight. As a stimulant of the pancreas secretion secretin and cholecystopancreoziimin were used which were intravenously administered at the rate of two units per kg of a dog's bodyweight. For administration of the stimulants of the pancreatic secretion, the hexapeptide according to the present invention and obtaining blood, the femoral vein was catheterized. For the measurement of diuresis and urine examination epicystostomy was effected or both ureters were catheterized. All the experiments were carried out on an empty stomach of the animals.
Prior to introduction of bile into Wirsung's duct, background samples of blood, urina and pancreatic juice were taken for special enzymological investigations. After administration of bile into Wirsung's duct the same biological tests were carried out every hour until the experiment was completed. The activity of the following pancreatic enzymes was studied: α-amylase, lipase, total esterase activity, antitryptic activity.
(§3) 30 minutes after the administration of bile into Wirsung's duct and then every 2 hours small pieces of pancreas tissue were taken from the animals from various sections for morphological investigations. In the second series of experiments 5 dogs were used. A hemorrhagic pancreonecrosis was induced in them and 2 hours after the development of acute pancreatitis an intravenous administration of the hexapeptide according to the present invention was started at the rate of 0.3 mg per kg of the animal's bodyweight. For enzymological and morphological studies the same biological samples and pieces of tissues of the pancreas were taken. The dogs were slaughtered 6-8 hours after the beginning of the experiment.
(§4) In the third series of experiments two dogs were used. The induced experimental pancreatitis was treated by means of the hexapeptide according to the present invention. The same tests were performed, but the dogs were not slaughtered. 24 hours from the beginning of the experiment and then 7 days and 15 days thereafter they were subjected to relaparotomy, the macroscopic view of pancreas was studied, pieces of the tissue of pancreas were taken for morphological studies.
(§5) The effect of the hexapeptide according to the present invention was compared with that of widely employed preparations--5-fluorouracyl an d tracilol--on the same model of acute pancreatitis.

[2] = Acute toxicity (LD50); conditions: for LD50: acute toxicity, dose causing death of 50% of the animals; for LD50 surpasses the therapeutic dose by: therapeutic dose: 5-fluorouracyl 5 mg/kg, hexapeptide 0.3 mg/kg
[3] = Effect on cell formula of the blood and immune system; conditions: in vivo
[4] = system: experimental hemorrhagic pancreonecrosis; experiment: Morphological studies of the pancreas in experimental hemorrhagic pancreonecrosis; assay type: in vivo, dogs; conditions: for Morphology of pancreas, early stages of treatment: tracilol 10,000 units per hour, hexapeptide 0.3 mg/kg
Protocol: as §1, §2
Three dogs were used in the control group of the experiments. They were treated to induce an experimental pancreatitis only without administration of the hexapeptide according to the present invention; an acute experiment lasted for 6-8 hours, whereafter the dogs were slaughtered by intracardiac administration of hexenal.
as §3, §4, §5

[5] = Solubility of the powder; assay type: physicochemical
Protocol: The hexapeptide according to the present invention comprises a white powder, well soluble in distilled water, a physiological solution, ethanol; insoluble in ether, ethylacetate, benzene. The melting temperature is 173°-176° C. [α]D^22 =-19.1 (c 0.33 H2 O).

[6] = dogs, developed pancreonecrosis, hexapeptide 0.3 mg/kg

CC(C)C[C@H](NC(=O)[C@H](Cc1ccccc1)NC(=O)CNC(=O)[C@H](C)NC(=O)[C@@H](N)Cc1ccc(O)cc1)C(=O)N[C@@H](CCCNC(=N)N)C(=O)O [Tyrosyl-alanyl-glycyl-phenylalanyl-leucyl-arginine] (H-YAGFLR-OH)
Total esterase activity in blood serum ([1]; dogs (7), hexapeptide 0.3 mg/kg i.v., after 4 hours, value for developed pancreonecrosis 0.76 ± 0.05): 0.16 ± 0.08 μM/ml | Activity of lipase in blood serum ([1]; dogs (7), hexapeptide 0.3 mg/kg i.v., after 4 hours, value for developed pancreonecrosis 1.15 ± 0.03): 0.25 ± 0.02 units | Antitryptic activity in blood serum ([1]; dogs (7), hexapeptide 0.3 mg/kg i.v., after 4 hours, value for developed pancreonecrosis 26.5 ± 1.3): 78.0 ± 13.1 IU | Activity of alpha-amylase in blood serum ([1]; dogs (7), hexapeptide 0.3 mg/kg i.v., after 4 hours, value for developed pancreonecrosis 178 ± 28.2): 246.2 ± 26.7 mg/n · ml | Total esterase activity in blood serum ([1]; dogs (7), hexapeptide 0.3 mg/kg i.v., after 6 hours, value for developed pancreonecrosis 0.76 ± 0.05): 0.20 ± 0.09 μM/ml | Activity of lipase in blood serum ([1]; dogs (7), hexapeptide 0.3 mg/kg i.v., after 6 hours, value for developed pancreonecrosis 1.15 ± 0.03): 0.40 ± 0.05 units | Antitryptic activity in blood serum ([1]; dogs (7), hexapeptide 0.3 mg/kg i.v., after 6 hours, value for developed pancreonecrosis 26.5 ± 1.3): 72.0 ± 2.5 IU | Activity of alpha-amylase in blood serum ([1]; dogs (7), hexapeptide 0.3 mg/kg i.v., after 6 hours, value for developed pancreonecrosis 178 ± 28.2): 258.2 ± 33.2 mg/n · ml | Activity of lipase in blood serum (in words) [1, 6]: sharply reduced | Increase of the antitryptic activity (in words) [1, 6]: three-time increase | Total esterase activity of blood (in words) [1, 6]: lowered | Synthesis of pancreatic enzymes in acute pancreatitis ([1]; dogs, hexapeptide): effectively inhibits | LD50 [2]: 150 mg/kg | LD50 surpasses the therapeutic dose by [2]: 500 times | Cell formula of the blood [3]: does not change the cell formula of the blood | Pathological responses on the part of the immune system [3]: does not cause pathological responses | Processes of homeopoiesis [3]: does not inhibit the processes of homeopoiesis | Morphology of hemorrhagic pancreonecrosis one day after the treatment ([4]; dogs, hexapeptide i.v.): positive dynamics | Regeneration of the acinar tissue ([4]; dogs, hexapeptide, 14 days after the beginning of the treatment): complete regeneration of the acinar tissue | Morphology of pancreas, early stages of treatment ([4]; dogs, 5-fluorouracyl 5 mg/kg): absence of signs of hemorrhagic zones of necrosis and hemorrhages into the interstice | Antipancreonecrotic activity ([4]; overall conclusion): exhibits an antipancreonecrotic activity | Solubility ([5]; benzene): insoluble | Solubility ([5]; distilled water): well soluble | Solubility ([5]; ethanol): well soluble | Solubility ([5]; ether): insoluble | Solubility ([5]; ethylacetate): insoluble | Solubility ([5]; physiological solution): well soluble

O=c1[nH]cc(F)c(=O)[nH]1 [5-fluorouracyl, reference compound]
Total esterase activity in blood serum ([1]; dogs (3), 5-fluorouracyl 5 mg/kg i.v., after 4 hours, value for developed pancreonecrosis 0.58 ± 0.07): 0.56 ± 0.02 μM/ml | Activity of lipase in blood serum ([1]; dogs (3), 5-fluorouracyl 5 mg/kg i.v., after 4 hours, value for developed pancreonecrosis 0.62 ± 0.12): 0.48 ± 0.02 units | Antitryptic activity in blood serum ([1]; dogs (3), 5-fluorouracyl 5 mg/kg i.v., after 4 hours, value for developed pancreonecrosis 22.2 ± 1.4): 20.1 ± 1.2 IU | Activity of alpha-amylase in blood serum ([1]; dogs (3), 5-fluorouracyl 5 mg/kg i.v., after 4 hours, value for developed pancreonecrosis 158.0 ± 18.2): 152.2 ± 24.1 mg/h · ml | Total esterase activity in blood serum ([1]; dogs (3), 5-fluorouracyl 5 mg/kg i.v., after 6 hours, value for developed pancreonecrosis 0.58 ± 0.07): 0.58 ± 0.04 μM/ml | Activity of lipase in blood serum ([1]; dogs (3), 5-fluorouracyl 5 mg/kg i.v., after 6 hours, value for developed pancreonecrosis 0.62 ± 0.12): 0.54 ± 0.08 units | Antitryptic activity in blood serum ([1]; dogs (3), 5-fluorouracyl 5 mg/kg i.v., after 6 hours, value for developed pancreonecrosis 22.2 ± 1.4): 20.1 ± 1.2 IU | Activity of alpha-amylase in blood serum ([1]; dogs (3), 5-fluorouracyl 5 mg/kg i.v., after 6 hours, value for developed pancreonecrosis 158.0 ± 18.2): 153.3 ± 17.1 mg/h · ml | Characteristics of activity of enzymes in blood serum (lipase, esterase, antitryptic), in words ([1]; dogs, developed pancreonecrosis, 5-fluorouracyl 5 mg/kg, tracilol 10,000 units/hour): remain substanctially unchanged | LD50 [2]: 750 mg/kg | LD50 surpasses the therapeutic dose by [2]: 150 times | Morphology of pancreas 7 days after the beginning of the treatment ([4]; dogs, 5-fluorouracyl 5 mg/kg): pronounced fibrosis of the pancreas with breaking of lobules into fragments | Regeneration of the pancreas ([4]; dogs, 5-fluorouracyl 5 mg/kg, later stages of treatment): incomplete | Morphology of pancreas, early stages of treatment ([4]; dogs, 5-fluorouracyl 5 mg/kg): noticeable inflammatory infiltration of necrotic zones and of the interstice is retained
